From patent EP0385712B1, “A peptide for use in the manufacture of a composition for prevention or treatment of a condition susceptible to treatment with a platelet aggregation inhibition agent” (ASAHI KASEI KOGYO KABUSHIKI KAISHA, priority 1989, dated 1994)
Positions of bridges follow the written chain, without caps; N, C: chain ends. Residues, ends and D or L forms follow the SMILES beside them.

These molecules were tested on rat, Wister strain (assay: Acute toxicity in rat, intravenous). Conditions: body weight 80 - 90 g, 80 µg/kg intravenously in the tail, solution in 0.1 M aqueous sodium acetate containing 0.1 % bovine serum albumin.
Type: in vivo
Protocol: A solution of each of the following compounds in 0.1 M aqueous sodium acetate containing 0.1 % bovine serum albumin is administered into a rat, Wister strain, body weight 80 - 90 g, 80 µg/kg, intraveneously in the tail.
With `CC(C)C[C@H](NC(=O)CNC(=O)[C@H](C)NC(=O)[C@H](CC(C)C)NC(=O)[C@H](CCCNC(=N)N)NC(=O)[C@H](Cc1cnc[nH]1)NC(=O)[C@@H](NC(=O)[C@@H](NC(=O)[C@@H]1CSSC[C@H](NC(=O)[C@H](C)N)C(=O)N[C@@H](CC(=O)O)C(=O)N[C@@H]([C@@H](C)O)C(=O)N[C@@H](C)C(=O)N[C@@H]([C@@H](C)O)C(=O)N1)C(C)C)[C@@H](C)O)C(=O)N[C@@H](CC(C)C)C(=O)N[C@@H](CO)C(=O)N[C@@H](CCCNC(=N)N)C(=O)N[C@@H](CO)C(=O)NCC(=O)NCC(=O)N[C@H](C(=O)N[C@H](C(=O)N[C@@H](CCCCN)C(=O)N[C@@H](CC(N)=O)C(=O)N[C@@H](CC(N)=O)C(=O)N[C@@H](Cc1ccccc1)C(=O)N[C@H](C(=O)N1CCC[C@H]1C(=O)N[C@H](C(=O)N[C@@H](CC(N)=O)C(=O)N[C@H](C(=O)NCC(=O)N[C@@H](CO)C(=O)N[C@@H](CCCCN)C(=O)N[C@@H](C)C(=O)N[C@@H](Cc1ccccc1)C(N)=O)C(C)C)[C@@H](C)O)C(C)C)C(C)C)C(C)C` [h - α - CGRP] the “Acute toxicity (deaths)” value was “No deaths were observed”. In the case of h - β- CGRP, the “Acute toxicity (deaths)” value is reported as “No deaths were observed”. For “desalanyl-deamino- [Asn³, Asp¹⁴, Gly²³] -h -α-CGRP”, the “Acute toxicity (deaths)” value was “No deaths were observed”. With `CC(C)C[C@H](NC(=O)[C@H](CCCNC(=N)N)NC(=O)[C@H](Cc1c[nH]cn1)NC(=O)[C@@H](NC(=O)[C@@H](NC(=O)[C@@H]1CSSC[C@H](NC(=O)[C@H](C)N)C(=O)N[C@@H](CC(N)=O)C(=O)N[C@@H]([C@@H](C)O)C(=O)N[C@@H](C)C(=O)N[C@@H]([C@@H](C)O)C(=O)N1)C(C)C)[C@@H](C)O)C(=O)N[C@@H](C)C(=O)N[C@@H](CC(=O)O)C(=O)N[C@@H](CC(C)C)C(=O)N[C@@H](CC(C)C)C(=O)N[C@@H](CO)C(=O)N[C@@H](CCCNC(=N)N)C(=O)N[C@@H](CO)C(=O)NCC(=O)NCC(=O)N[C@H](C(=O)NCC(=O)N[C@@H](CCCCN)C(=O)N[C@@H](CC(N)=O)C(=O)N[C@@H](CC(N)=O)C(=O)N[C@@H](Cc1ccccc1)C(=O)N[C@H](C(=O)N1CCC[C@H]1C(=O)N[C@H](C(=O)N[C@@H](CC(N)=O)C(=O)N[C@H](C(=O)NCC(=O)N[C@@H](CO)C(=O)N[C@@H](CCCCN)C(=O)N[C@@H](C)C(=O)N[C@@H](Cc1ccccc1)C(N)=O)C(C)C)[C@@H](C)O)C(C)C)C(C)C` [[Asn³, Asp¹⁴, Gly²³] -h -α-CGRP] (H-ACNTATCVTHRLADLLSRSGGVGKNNFVPTNVGSKAF-NH2; disulfide 2-7) the “Acute toxicity (deaths)” value was “No deaths were observed”. With desalanyl- [Asu^2,⁷] - c-CGRP the “Acute toxicity (deaths)” value was “No deaths were observed”. With “desalanyl-deamino- [Asn³, Glu¹⁴, Phe¹⁵] -h -α-CGRP” the “Acute toxicity (deaths)” value was “No deaths were observed”. For “desalanyl-deamino- [Asn³, Phe¹⁵, Gly²³] -h -α-CGRP”, the “Acute toxicity (deaths)” value was “No deaths were observed”. In the case of desalanyl-deamino-c-CGRP, the “Acute toxicity (deaths)” value is reported as “No deaths were observed”. “desalanyl-deamino- [Asn³, Glu¹⁴, Gly²³] -h -α-CGRP” was tested, and the “Acute toxicity (deaths)” value was “No deaths were observed”. For “desalanyl-deamino- [Asn³, Asp¹⁴, Phe¹⁵] -h -α-CGRP”, the “Acute toxicity (deaths)” value was “No deaths were observed”. For `CC(C)C[C@H](NC(=O)[C@H](CCCNC(=N)N)NC(=O)[C@H](Cc1c[nH]cn1)NC(=O)[C@@H](NC(=O)[C@@H](NC(=O)[C@@H]1CSSC[C@H](NC(=O)[C@H](C)N)C(=O)N[C@@H](CC(N)=O)C(=O)N[C@@H]([C@@H](C)O)C(=O)N[C@@H](C)C(=O)N[C@@H]([C@@H](C)O)C(=O)N1)C(C)C)[C@@H](C)O)C(=O)N[C@@H](C)C(=O)NCC(=O)N[C@@H](Cc1ccccc1)C(=O)N[C@@H](CC(C)C)C(=O)N[C@@H](CO)C(=O)N[C@@H](CCCNC(=N)N)C(=O)N[C@@H](CO)C(=O)NCC(=O)NCC(=O)N[C@H](C(=O)NCC(=O)N[C@@H](CCCCN)C(=O)N[C@@H](CC(N)=O)C(=O)N[C@@H](CC(N)=O)C(=O)N[C@@H](Cc1ccccc1)C(=O)N[C@H](C(=O)N1CCC[C@H]1C(=O)N[C@H](C(=O)N[C@@H](CC(N)=O)C(=O)N[C@H](C(=O)NCC(=O)N[C@@H](CO)C(=O)N[C@@H](CCCCN)C(=O)N[C@@H](C)C(=O)N[C@@H](Cc1ccccc1)C(N)=O)C(C)C)[C@@H](C)O)C(C)C)C(C)C` [[Asn³, Phe¹⁵, Gly²³] -h -α-CGRP] (H-ACNTATCVTHRLAGFLSRSGGVGKNNFVPTNVGSKAF-NH2; disulfide 2-7), the “Acute toxicity (deaths)” value was “No deaths were observed”.
